Broadly, the GI50 is the concentration at which growth is held to half of that of the control.

One series deals with human tumour cell lines. The experiment in a line: cells. The protocol:
(§1) In vitro biological activity studies were carried out at National Cancer Institute (USA).
(§2) For each compound, dose response curves for each cell line were measured at a minimum of five concentrations at 10 fold dilutions. A protocol of 48 h continuous drug exposure was used and a sulforhodamine B (SRB) protein assay was used to estimate cell viability or growth. […]

Another series concerns (Lung) NCI-H460. The experiment in a line: In vitro one dose primary anticancer assay (NCI). Type of series: cell-based, human. To be noted: one dose at 10^-4 molar concentration.
The next series concerns (Breast) MCF7. The experiment in a line: In vitro one dose primary anticancer assay (NCI). To be noted: one dose at 10^-4 molar concentration. Type of series: cell-based, human.
A further series relates to (CNS) SF-268. The experiment in a line: In vitro one dose primary anticancer assay (NCI). To be noted: one dose at 10^-4 molar concentration. Type of series: cell-based, human.
Series [1] relates to non-small cell lung cancer (NCI-H226). The settings on record: read-out: potency (at the LC50 level). On the procedure: as §1, §2
A further series has as its system renal cancer (A498). To be noted: read-out: potency (at the LC50 level). The protocol:
as §1, §2

The subject of the next series is leukemia cancer (SR). To be noted: read-out: potency (at the LC50 level). The protocol: as §1, §2
A further series deals with prostate cancer (DU-145). To be noted: read-out: potency (at the LC50 level). The protocol: as §1, §2
Another series deals with melanoma cancer (M14). To be noted: read-out: potency (at the LC50 level). On the procedure: as §1, §2
The next series deals with colon cancer (HCC-2998). To be noted: read-out: potency (at the LC50 level). The protocol: as §1, §2
The subject of series [2] is CNS cancer cell lines (SNB75). The settings on record: read-out: potency (at the LC50 level). On the procedure:
as §1, §2

The subject of the next series is Renal. The settings on record: average of six to nine different cancer cell lines, log value. On the procedure: as §1, §2
(§3) Each cancer type represents the average of six to nine different cancer cell lines.

The next series relates to Melanoma. To be noted: average of six to nine different cancer cell lines, log value. On the procedure: as §1, §2, §3
The test system of another series is Colon. The settings on record: average of six to nine different cancer cell lines, log value. On the procedure: as §1, §2, §3
The test system of the next series is Breast. To be noted: average of six to nine different cancer cell lines, log value. The protocol: as §1, §2, §3
The subject of another series is Non-small-cell lung. To be noted: average of six to nine different cancer cell lines, log value. The protocol: as §1, §2, §3
A further series has as its system Leukemia. To be noted: average of six to nine different cancer cell lines, log value. The protocol:
as §1, §2, §3

The next series concerns Ovarian. To be noted: average of six to nine different cancer cell lines, log value. The protocol: as §1, §2, §3
A further series relates to Prostate. The settings on record: average of six to nine different cancer cell lines, log value. On the procedure:
as §1, §2, §3

A further series has as its system CNS. The settings on record: average of six to nine different cancer cell lines, log value. The protocol:
as §1, §2, §3

Where only a bound is given, the exact number is not on record here.

With `COc1cc2c(cc1OCCCC(=O)Nc1ccc3ccc4cccc5ccc1c3c45)N=C[C@@H]1CCCN1C2=O` [Ve, 7-Methoxy-8-[N-(1"-pyrenyl)-propane-3'-carboxamide]-oxy-(11aS)-1,2,3,11atetra-hydro-5H-pyrrolo[2,1-c][1,4]benzodiazepin-5-one], the GI50 in the series on human tumour cell lines (Homo sapiens, 48 h, read-out: Log10 GI50 (converted)) was 17.8 nM. In the series on human tumour cell lines (mean graph midpoint (MG_MID), 48 h continuous drug exposure, 50% cell death), the “Log10 LC50” value is reported as -4.74. Moreover, the “Log10 TGI” value in the series on human tumour cell lines (mean graph midpoint (MG_MID), 48 h continuous drug exposure, total cell growth inhibition) was -6.89. Also, in the series with (Lung) NCI-H460, the “Growth percentages (Lung) NCI-H460” value came out at 11. For the same molecule, in the series on (Breast) MCF7, the “Growth percentages (Breast) MCF7” value came to 31. For the same molecule, the “Growth percentages (CNS) SF-268” value in the series on (CNS) SF-268 is given as 70. Besides, the CC50 is 10 nM in series [1]; 100 nM in the series on renal cancer (A498); 100 nM in the series with leukemia cancer (SR); 10000 nM with prostate cancer (DU-145); 100 nM in the series with melanoma cancer (M14); 10 nM in the series on colon cancer (HCC-2998). In [2], the CC50 came to 10000 nM. The “Log LC50 (concentration in mol/L causing 50% lethality)” value in the series with Renal was -5.05 mol/L; with Melanoma, -5.62 mol/L; with Colon, -5.00 mol/L; in the series on Breast, more than -4.00 mol/L; in the series with Non-small-cell lung it was -4.67 mol/L; in the series on Leukemia it was -4.65 mol/L. Moreover, the “Log LC50 (concentration in mol/L causing 50% lethality)” value with Ovarian is recorded as more than -4.00 mol/L; in the series with Prostate, -5.30 mol/L; with CNS it was -5.23 mol/L.

With “7-Methoxy-8-[N-(1"-pyrenyl)-butne-4'-carboxamide]-oxy-(11aS)-1,2,3,11a-tetra-hydro-5H-pyrrolo[2,1-c][1,4]benzodiazepin-5-one [Vg]”, in the series on (Lung) NCI-H460, the “Growth percentages (Lung) NCI-H460” value is on record as 106. Besides, in the series on (Breast) MCF7, the “Growth percentages (Breast) MCF7” value is listed as 72. Also, in the series with (CNS) SF-268, the “Growth percentages (CNS) SF-268” value amounted to 131.

The values above are taken from patent EP1608650B1, “PYRENE-LINKED PYRROLO(2,1-C)(1,4)BENZODIAZEPINE DERIVATIVES USEFUL AS ANTICANCER AGENTS” (Council of Scientific and Industrial Research, priority 2003, dated 2004).
